The target of data set [1] is T1, Recombinant human PI3Kγ (full length human PI3K p110γ) (Homo sapiens, UniProt P48736).
T1 construct: full length human PI3K p110γ fused with a His6-tag at the C-terminus; His6 (C); purchased ALEXIS BIOCHEMICALS #201-055-C010; host or cells: S. frugiperda 9 insect cells
Nature of the data set: Kinase assay of PI3Kγ (solid-phase lipid kinase assay). Format: biochemical. To be noted: in vitro PI3K-γ inhibitory activity, read-out: in vitro PI3K-gamma.

SMILES strings stand for the structures. Like-named read-outs stand apart in the source and are kept apart here. Where only a bound is given, the exact number is not on record here.

T1 sequence (P48736 whole entry, the tested form may be a part): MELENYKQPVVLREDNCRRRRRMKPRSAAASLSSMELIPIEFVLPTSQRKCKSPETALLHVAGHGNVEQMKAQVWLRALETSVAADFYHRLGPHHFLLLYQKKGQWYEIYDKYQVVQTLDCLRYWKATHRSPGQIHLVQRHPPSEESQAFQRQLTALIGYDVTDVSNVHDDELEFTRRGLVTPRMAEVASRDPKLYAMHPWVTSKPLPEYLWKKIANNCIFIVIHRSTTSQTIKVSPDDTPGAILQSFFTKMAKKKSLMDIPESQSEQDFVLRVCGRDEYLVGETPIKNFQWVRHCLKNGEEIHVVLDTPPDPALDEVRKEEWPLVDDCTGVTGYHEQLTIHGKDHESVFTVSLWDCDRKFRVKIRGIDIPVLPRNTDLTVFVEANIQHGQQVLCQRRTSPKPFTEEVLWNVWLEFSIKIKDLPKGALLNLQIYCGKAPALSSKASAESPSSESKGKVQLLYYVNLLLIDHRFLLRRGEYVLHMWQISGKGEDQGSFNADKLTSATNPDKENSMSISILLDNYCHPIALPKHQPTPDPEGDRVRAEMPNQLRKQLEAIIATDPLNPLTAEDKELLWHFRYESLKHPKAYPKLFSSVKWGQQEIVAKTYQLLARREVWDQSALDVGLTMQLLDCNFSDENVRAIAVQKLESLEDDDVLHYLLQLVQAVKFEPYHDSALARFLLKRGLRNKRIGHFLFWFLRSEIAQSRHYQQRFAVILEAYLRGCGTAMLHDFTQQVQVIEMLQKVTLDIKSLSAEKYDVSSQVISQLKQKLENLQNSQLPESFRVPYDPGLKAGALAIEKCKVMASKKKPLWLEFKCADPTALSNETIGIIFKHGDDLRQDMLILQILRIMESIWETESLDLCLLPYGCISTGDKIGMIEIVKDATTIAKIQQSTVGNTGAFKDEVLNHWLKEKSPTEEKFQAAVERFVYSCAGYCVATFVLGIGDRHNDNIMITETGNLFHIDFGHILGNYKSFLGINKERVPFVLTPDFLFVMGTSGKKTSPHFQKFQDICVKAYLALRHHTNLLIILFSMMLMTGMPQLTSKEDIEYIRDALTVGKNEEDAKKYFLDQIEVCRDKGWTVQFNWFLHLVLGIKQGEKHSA

`Cc1nc(C)c(C(=O)NC2=Nc3ccccc3C3=NCCN23)s1.Cl` [Example 2-190] registered a melting point of 289 to 290 °C. For the same compound, the IC50 in data set [1] (class symbols) was less than 100 nM.

For `CCn1nc(C)cc1C(=O)NC1=Nc2ccccc2C2=NCCN12` [Example 2-191], the melting point lay in the range of 207 to 208 °C. Further, in data set [1] (class symbols), the IC50 fell in the range of 100 to 500 nM.

As to `O=C(NC1=Nc2ccccc2C2=NCCN12)c1c[nH]cn1` [Example 2-193], the melting point was 265 °C (dec.). The IC50 in data set [1] (class symbols) lay within 100 to 500 nM.

For the compound `Cl.O=C(NC1=Nc2cc(O)ccc2C2=NCCN12)c1cccnc1` [Example 2-195], the melting point was 270 to 274 °C (dec.). Besides, the IC50 in data set [1] (class symbols) lay within 100 to 500 nM.

Compound `Cl.O=C(NC1=Nc2cc(OCCn3cccc3)ccc2C2=NCCN12)c1cccnc1` [Example 2-196] displayed a melting point of 239 °C. The IC50 in data set [1] (class symbols) was 100 to 500 nM.

Take `O=C(NC1=Nc2cc(OCCO)ccc2C2=NCCN12)c1cccnc1` [Example 2-197]: the melting point is 210 to 215 °C (dec.). Besides, the IC50 in data set [1] (class symbols) was 100 to 500 nM.

For the compound `O=C(NC1=Nc2cc(OCCCO)ccc2C2=NCCN12)c1cccnc1` [Example 2-199], the melting point stood at 127 °C. In addition, the IC50 in data set [1] (class symbols) was less than 100 nM.

In the case of `Cl.O=C(NC1=Nc2cc(OCCCO)ccc2C2=NCCN12)c1cccnc1` [Example 2-200], the melting point is 243 °C (dec.). Also, the IC50 in data set [1] (class symbols) was in the range of 100 to 500 nM.

For the compound `O=C(NC1=Nc2cc(OCCOCCO)ccc2C2=NCCN12)c1cccnc1` [Example 2-201], the melting point was determined as 181 °C. Besides, the IC50 in data set [1] (class symbols) lay within 100 to 500 nM.

Turning to `Cl.O=C(O)COc1ccc2c(c1)N=C(NC(=O)c1cccnc1)N1CCN=C21` [Example 2-203], the melting point was 231 °C (dec.). In data set [1] (class symbols), the IC50 was in the range of 100 to 500 nM.

Turning to `Cl.O=C1NCC(COc2ccc3c(c2)N=C(NC(=O)c2cccnc2)N2CCN=C32)O1` (stereo not drawn) [Example 2-204], the melting point was 265 to 269 °C (dec.). The IC50 in data set [1] (class symbols A-D) lay in the range of 100 to 500 nM.

On to `Cl.O=C(NC1=Nc2cc(OCCN3CCOCC3)ccc2C2=NCCN12)c1cccnc1` [Example 2-205], for which the melting point is 243 to 247 °C (dec.). In data set [1] (class symbols A-D), the IC50 is 100 to 500 nM.

`NC(=O)COc1ccc2c(c1)N=C(NC(=O)c1cccnc1)N1CCN=C21` [Example 2-206] came in with a melting point of 296 °C. In addition, the IC50 in data set [1] (class symbols A-D) was 100 to 500 nM.

`O=C(NC1=Nc2cc(OCC(=O)N3CCOCC3)ccc2C2=NCCN12)c1cccnc1` [Example 2-207]: the melting point is 232 to 236 °C (dec.). The IC50 in data set [1] (class symbols A-D) fell in the range of 100 to 500 nM.

`Cl.O=C(NC1=Nc2cc(OCCCN3C(=O)c4ccccc4C3=O)ccc2C2=NCCN12)c1cccnc1` [Example 2-209] had a melting point of 247 °C. For the same compound, the IC50 in data set [1] (class symbols A-D) is less than 100 nM.

The compound `O=C(NC1=Nc2ccc(O)cc2C2=NCCN12)c1cccnc1` [Example 2-210] came in with a melting point greater than 300 °C. Also, the IC50 in data set [1] (class symbols A-D) was 100 to 500 nM.

Consider `Cl.O=C(NC1=Nc2ccc(O)cc2C2=NCCN12)c1cccnc1` [Example 2-211], for which the melting point is greater than 300 °C. In addition, in data set [1] (class symbols A-D), the IC50 was less than 100 nM.

Turning to `O=C(NC1=Nc2ccc(O)cc2C2=NCCN12)c1ccc2[nH]cnc2c1` [Example 2-212], the melting point is 296 °C (dec.). The IC50 in data set [1] (class symbols A-D) lay within 100 to 500 nM.

`N#CCOc1ccc2c(c1)C1=NCCN1C(NC(=O)c1cccnc1)=N2` [Example 2-213]: the melting point worked out at 209 °C. Moreover, the IC50 in data set [1] (class symbols A-D) fell in the range of 100 to 500 nM.

In the case of `O=C(NC1=Nc2ccccc2C2=NCCN12)c1ccccc1` [Example 2-214], the melting point was 201 to 203 °C (dec.). The IC50 in data set [1] (class symbols A-D) is 500 to 2000 nM.

`O=C(NC1=Nc2ccccc2C2=NCCN12)c1ccccc1.O=C(O)C(F)(F)F` [Example 2-215] gave a melting point of 238 to 242 °C. Further, in data set [1] (class symbols A-D), the IC50 fell in the range of 100 to 500 nM.

For the compound `Cc1cccc(C(=O)NC2=Nc3ccccc3C3=NCCN23)c1` [Example 2-216], the melting point was in the range of 201 to 203 °C. For the same compound, the IC50 in data set [1] (class symbols A-D) is greater than 2000 nM.

In turn, `Cc1cccc(C(=O)NC2=Nc3ccccc3C3=NCCN23)c1.O=C(O)C(F)(F)F` [Example 2-217] had a melting point of 239 to 241 °C. In data set [1] (class symbols A-D), the IC50 was in the range of 100 to 500 nM.

`Cc1ccc(C(=O)NC2=Nc3ccccc3C3=NCCN23)cc1` [Example 2-218] registered a melting point of 185 to 186 °C. Besides, the IC50 in data set [1] (class symbols A-D) was greater than 2000 nM.

In turn, `Cc1cc(C)cc(C(=O)NC2=Nc3ccccc3C3=NCCN23)c1` [Example 2-219] showed a melting point of 246 to 248 °C. The IC50 in data set [1] (class symbols A-D) was greater than 2000 nM.

Turning to `COc1c(C)cc(C(=O)NC2=Nc3ccccc3C3=NCCN23)cc1C` [Example 2-220], the melting point lay in the range of 216 to 218 °C. The IC50 in data set [1] (class symbols A-D) is greater than 2000 nM.

For the compound `Cc1cc(C(=O)NC2=Nc3ccccc3C3=NCCN23)cc(C)c1[N+](=O)[O-]` [Example 2-222], the melting point is 277 °C (dec.). Also, the IC50 in data set [1] (class symbols A-D) was greater than 2000 nM.

On to `O=C(NC1=Nc2ccccc2C2=NCCN12)c1ccccc1F` [Example 2-224], for which the melting point was in the range of 202 to 204 °C. For the same compound, in data set [1] (class symbols A-D), the IC50 lay in the range of 500 to 2000 nM.

Compound `O=C(NC1=Nc2ccccc2C2=NCCN12)c1ccc(F)cc1` [Example 2-225] had a melting point of 210 to 212 °C. The IC50 in data set [1] (class symbols A-D) was greater than 2000 nM.

The compound `O=C(NC1=Nc2ccccc2C2=NCCN12)c1ccccc1Cl.O=C(O)C(F)(F)F` [Example 2-226] gave a melting point of 221 to 224 °C. Also, the IC50 in data set [1] (class symbols A-D) was greater than 2000 nM.

Consider `O=C(NC1=Nc2ccccc2C2=NCCN12)c1cccc(Cl)c1` [Example 2-227], for which the melting point is 196 to 197 °C. Besides, the IC50 in data set [1] (class symbols A-D) is greater than 2000 nM.

Compound `O=C(NC1=Nc2ccccc2C2=NCCN12)c1cccc(Cl)c1.O=C(O)C(F)(F)F` [Example 2-228] gave a melting point of 233 to 235 °C. Further, in data set [1] (class symbols A-D), the IC50 lay in the range of 500 to 2000 nM.

Take `O=C(NC1=Nc2ccccc2C2=NCCN12)c1ccc(Cl)cc1` [Example 2-229]: the melting point lay in the range of 226 to 228 °C. Moreover, the IC50 in data set [1] (class symbols A-D) was greater than 2000 nM.

As for `O=C(NC1=Nc2ccccc2C2=NCCN12)c1cc(Cl)cc(Cl)c1` [Example 2-231], the melting point is 268 to 269 °C. Besides, the IC50 in data set [1] (class symbols A-D) was greater than 2000 nM.

Compound `COc1ccccc1C(=O)NC1=Nc2ccccc2C2=NCCN12` [Example 2-232] came in with a melting point of 185 to 187 °C. Further, in data set [1] (class symbols A-D), the IC50 was greater than 2000 nM.

Consider `COc1cccc(C(=O)NC2=Nc3ccccc3C3=NCCN23)c1` [Example 2-233], for which the melting point lay in the range of 202 to 204 °C. The IC50 in data set [1] (class symbols A-D) was greater than 2000 nM.

Compound `COc1cccc(C(=O)NC2=Nc3ccccc3C3=NCCN23)c1.O=C(O)C(F)(F)F` [Example 2-234] showed a melting point of 209 to 211 °C. The IC50 in data set [1] (class symbols A-D) fell in the range of 500 to 2000 nM.

Regarding `COc1ccc(C(=O)NC2=Nc3ccccc3C3=NCCN23)cc1` [Example 2-235], the melting point was 300 °C (dec.). Also, the IC50 in data set [1] (class symbols A-D) was greater than 2000 nM.

Consider `CC(C)(C)Oc1ccc(C(=O)NC2=Nc3ccccc3C3=NCCN23)cc1` [Example 2-236], for which the melting point was greater than 410 °C. Moreover, the IC50 in data set [1] (class symbols A-D) is greater than 2000 nM.

On to `COc1ccc(C(=O)NC2=Nc3ccccc3C3=NCCN23)c(OC)c1.Cl` [Example 2-237], for which the melting point was 259 °C (dec.). Besides, the IC50 in data set [1] (class symbols A-D) was greater than 2000 nM.

Regarding `COc1ccc(C(=O)NC2=Nc3ccccc3C3=NCCN23)cc1OC.Cl` [Example 2-238], the melting point was 274 °C (dec.). Also, the IC50 in data set [1] (class symbols A-D) lay within 100 to 500 nM.

Consider `COc1cc(OC)cc(C(=O)NC2=Nc3ccccc3C3=NCCN23)c1` [Example 2-239], for which the melting point is 330 °C (dec.). In addition, the IC50 in data set [1] (class symbols A-D) was greater than 2000 nM.

With `COc1cc(C(=O)NC2=Nc3ccccc3C3=NCCN23)cc(OC)c1OC.Cl` [Example 2-240], the melting point is 291 °C (dec.). Further, the IC50 in data set [1] (class symbols A-D) was greater than 2000 nM.

Consider `COc1cc(C(=O)NC2=Nc3ccccc3C3=NCCN23)cc(OC)c1C` [Example 2-241], for which the melting point was 248 °C (dec.). The IC50 in data set [1] (class symbols A-D) was greater than 2000 nM.

Compound `CSc1ccc(C(=O)NC2=Nc3ccccc3C3=NCCN23)cc1` [Example 2-243] had a melting point of 169 to 170 °C. Moreover, the IC50 in data set [1] (class symbols A-D) is greater than 2000 nM.

Turning to `CS(=O)(=O)c1ccc(C(=O)NC2=Nc3ccccc3C3=NCCN23)cc1` [Example 2-245], the melting point was 278 °C (dec.). Also, the IC50 in data set [1] (class symbols A-D) is greater than 2000 nM.

`NS(=O)(=O)c1ccc(C(=O)NC2=Nc3ccccc3C3=NCCN23)cc1` [Example 2-247]: the melting point was 278 °C (dec.). In data set [1] (class symbols A-D), the IC50 lay in the range of 500 to 2000 nM.

With `NS(=O)(=O)c1ccc(C(=O)NC2=Nc3ccccc3C3=NCCN23)c(Cl)c1` [Example 2-249], the melting point was 240 °C (dec.). Besides, in data set [1] (class symbols A-D), the IC50 was greater than 2000 nM.

Consider `O=C(NC1=Nc2ccccc2C2=NCCN12)c1ccccc1[N+](=O)[O-].O=C(O)C(F)(F)F` [Example 2-251], for which the melting point lay within 198 to 200 °C. The IC50 in data set [1] (class symbols A-D) is greater than 2000 nM.

Regarding `O=C(NC1=Nc2ccccc2C2=NCCN12)c1cccc([N+](=O)[O-])c1` [Example 2-252], the melting point lay within 265 to 267 °C. Also, the IC50 in data set [1] (class symbols A-D) was greater than 2000 nM.

As for `O=C(NC1=Nc2ccccc2C2=NCCN12)c1ccc([N+](=O)[O-])cc1` [Example 2-254], the melting point lay in the range of 279 to 281 °C. Also, the IC50 in data set [1] (class symbols A-D) is greater than 2000 nM.

As for `N#Cc1ccc(C(=O)NC2=Nc3ccccc3C3=NCCN23)cc1.O=C(O)C(F)(F)F` [Example 2-256], the melting point fell in the range of 248 to 250 °C. In data set [1] (class symbols A-D), the IC50 is greater than 2000 nM.

On to `Nc1ccccc1C(=O)NC1=Nc2ccccc2C2=NCCN12.O=C(O)C(F)(F)F` [Example 2-257], for which the melting point is 175 °C (dec.). Further, the IC50 in data set [1] (class symbols A-D) is greater than 2000 nM.

In turn, `CN(C)c1cccc(C(=O)NC2=Nc3ccccc3C3=NCCN23)c1` [Example 2-258] showed a melting point of 188 to 190 °C. For the same compound, the IC50 in data set [1] (class symbols A-D) was greater than 2000 nM.

In general, melting point refers to the temperature of the solid-liquid transition.
